Literature values, collected in patent US20100136095A1, “Systems for modulating inflammation” (Searete LLC, a limited liability corporation of the State …, priority 2008, published 2010).

Key:
[1] = infused at 400 mg over one hour, single agent
[2] = system: Src family kinases (Src, Lck, Yes, Fyn); conditions: at nanomolar concentrations
proteasome = conditions: cultured breast cancer cells; disulfiram bound to copper
lethal septic shock = conditions: mice

For CCN(CC)CCCC(C)Nc1ccnc2cc(Cl)ccc12.O=P(O)(O)O.O=P(O)(O)O (centres unmarked) [Chloroquine phosphate, 7-chloro-4-[[4-(diethylamino)-1-methylbutyl]amino]quinoline phosphate (1:2)], the tolerability of infusion [1] is listed as “without complication”.
In the case of CCN(CC)CCCC(C)Nc1ccnc2cc(Cl)ccc12 (centres unmarked) [Chloroquine], the “inhibition of CpG-induced Src family kinase activation or its dependent cellular responses” value (Src family kinase) is given as “does not inhibit”.
For Cc1nc(Nc2ncc(C(=O)Nc3c(C)cccc3Cl)s2)cc(N2CCN(CCO)CC2)n1.O [Dasatinib, N-(2-chloro-6-methylphenyl)-2-[[6-[4-(2-hydroxyethyl)-1-piperazinyl]-2-methyl-4-pyrimidinyl]amino]-5-thiazolecarboxamide, monohydrate], the “inhibition of Src family kinases (Src, Lck, Yes, Fyn)” value [2] is listed as “inhibits”.
For CCN(CC)C(=S)SSC(=S)N(CC)CC [Disulfiram, 1-(diethylthiocarbamoyldisulfanyl)-N,N-diethyl-methanethioamide], the proteasomal activity (proteasome) is given as “inhibits proteasomal activity”.
In the case of Cl.Cl.Nc1ccccc1Oc1ccc2c(N)nsc2c1 [Example M62812, 3-amino-6-(2-aminophenoxy)-1,2-benzisothiazole dihydrochloride], the “prevention of lethal septic shock” value (lethal septic shock) is given as “prevents lethal septic shock”.
